Assay results taken from US9243001B2, “Substituted benzene compounds” (Epizyme, Inc., priority 2013, dated 2016).

Biological target: T1, wild-type EZH2 (PRC2 enzyme) (Homo sapiens, UniProt Q15910)
T1 construct: made in house; host or cells: Spodoptera frugiperda (sf9) cells, baculovirus
Test: PRC2 enzyme assay on peptide substrates (wild-type EZH2)
Format: biochemical
Conditions: wild-type PRC2 enzyme 4 nM, H3K27me0 peptide substrate, 3H-SAM Flashplate; read-out: WT EZH2 IC50
Text: General Materials. S-adenosylmethionine (SAM), S-adenosylhomocyteine (SAH), bicine, KCl, Tween20, dimethylsulfoxide (DMSO) and bovine skin gelatin (BSG) were purchased from Sigma-Aldrich at the highest level of purity possible. Dithiothreitol (DTT) was purchased from EMD Millipore. ^3H-SAM was purchased from American Radiolabeled Chemicals with a specific activity of 80 Ci/mmol. 384-well streptavidin Flashplates were purchased from PerkinElmer.
Substrates. Peptides representative of human histone H3 residues 21- 44 containing either an unmodified lysine 27 (H3K27me0) or dimethylated lysine 27 (H3K27me2) are synthesized with a C-terminal G(K-biotin) linker-affinity tag motif and a C-terminal amide cap by 21st Century Biochemicals. The peptides are high-performance liquid chromatography (HPLC) purified to greater than 95% purity and confirmed by liquid chromatography mass spectrometry (LC-MS). The sequences are listed below.
Recombinant PRC2 Enzymes. Human PRC2 enzymes were purified as 4-component enzyme complexes co-expressed in Spodoptera frugiperda (sf9) cells using a baculovirus expression system. The subunits expressed were wild-type EZH2 (NM_004456) or EZH2 Y641F, N, H, S or C mutants generated from the wild-type EZH2 construct, EED (NM_003797), Suz12 (NM_015355) and RbAp48 (NM_005610). The EED subunit contained an N-terminal FLAG tag that was used to purify the entire 4-component complex from sf9 cell lysates. The purity of the complexes met or exceeded 95% as determined by SDS-PAGE and Agilent Bioanalyzer analysis. Concentrations of enzyme stock concentrations (generally 0.3-1.0 mg/mL) was determined using a Bradford assay against a bovine serum albumin (BSA) standard.
General Procedure for PRC2 Enzyme Assays on Peptide Substrates. The assays were all performed in a buffer consisting of 20 mM bicine (pH=7.6), 0.5 mM DTT, 0.005% BSG and 0.002% Tween20, prepared on the day of use. Compounds in 100% DMSO (1 μL) were spotted into polypropylene 384-well V-bottom plates (Greiner) using a Platemate 2×3 outfitted with a 384-channel pipet head (Thermo). DMSO (1 μL) was added to columns 11, 12, 23, 24, rows A -H for the maximum signal control, and SAH, a known product and inhibitor of PRC2 (1 μL) was added to columns 11,12, 23, 24, rows I -P for the minimum signal control. A cocktail (40 μL) containing the wild-type PRC2 enzyme and H3K27me0 peptide or any of the Y641 mutant enzymes and H3K27me2 peptide was added by Multidrop Combi (Thermo). The compounds were allowed to incubate with PRC2 for 30 min at 25° C., then a cocktail (10 μL) containing a mixture of non-radioactive and ^3H-SAM was added to initiate the reaction (final volume=51 μL). In all cases, the final concentrations were as follows: wild-type or mutant PRC2 enzyme was 4 nM, SAH in the minimum signal control wells was 1 mM and the DMSO concentration was 1%. The assays were stopped by the addition of non-radioactive SAM (10 μL) to a final concentration of 600 μM, which dilutes the ^3H-SAM to a level where its incorporation into the peptide substrate is no longer detectable. 50 μL of the reaction in the 384-well polypropylene plate was then transferred to a 384-well Flashplate and the biotinylated peptides were allowed to bind to the streptavidin surface for at least 1 h before being washed three times with 0.1% Tween20 in a Biotek ELx405 plate washer. The plates were then read in a PerkinElmer TopCount platereader to measure the quantity of ^3H-labeled peptide bound to the Flashplate surface, measured as disintegrations per minute (dpm) or alternatively, referred to as counts per minute (cpm).
Where dpm=disintegrations per minute, cmpd=signal in assay well, and min and max are the respective minimum and maximum signal controls.
Where top and bottom are the normally allowed to float, but may be fixed at 100 or 0 respectively in a 3-parameter fit. The Hill Coefficient normally allowed to float but may also be fixed at 1 in a 3-parameter fit. […]

T1 sequence (Q15910 1-751 isoform Q15910-2): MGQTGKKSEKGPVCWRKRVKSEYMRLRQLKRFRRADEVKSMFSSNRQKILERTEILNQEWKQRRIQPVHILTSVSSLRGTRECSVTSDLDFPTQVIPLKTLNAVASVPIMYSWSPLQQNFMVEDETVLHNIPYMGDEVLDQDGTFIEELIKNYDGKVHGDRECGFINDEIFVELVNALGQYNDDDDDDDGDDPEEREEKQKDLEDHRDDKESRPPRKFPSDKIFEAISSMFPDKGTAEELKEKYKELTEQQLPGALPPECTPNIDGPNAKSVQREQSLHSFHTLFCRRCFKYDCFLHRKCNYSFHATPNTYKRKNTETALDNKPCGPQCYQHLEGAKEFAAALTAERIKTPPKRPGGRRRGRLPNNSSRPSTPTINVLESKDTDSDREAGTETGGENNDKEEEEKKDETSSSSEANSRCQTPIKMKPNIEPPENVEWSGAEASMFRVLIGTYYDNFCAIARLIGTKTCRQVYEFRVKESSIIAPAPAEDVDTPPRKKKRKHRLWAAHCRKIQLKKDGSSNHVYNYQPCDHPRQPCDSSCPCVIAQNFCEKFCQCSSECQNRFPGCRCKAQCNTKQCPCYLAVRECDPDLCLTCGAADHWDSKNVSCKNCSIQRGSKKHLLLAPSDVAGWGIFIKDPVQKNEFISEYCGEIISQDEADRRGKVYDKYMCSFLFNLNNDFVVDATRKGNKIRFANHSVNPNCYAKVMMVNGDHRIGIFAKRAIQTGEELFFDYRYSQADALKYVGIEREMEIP
T1 sequence (O75530 whole entry partner): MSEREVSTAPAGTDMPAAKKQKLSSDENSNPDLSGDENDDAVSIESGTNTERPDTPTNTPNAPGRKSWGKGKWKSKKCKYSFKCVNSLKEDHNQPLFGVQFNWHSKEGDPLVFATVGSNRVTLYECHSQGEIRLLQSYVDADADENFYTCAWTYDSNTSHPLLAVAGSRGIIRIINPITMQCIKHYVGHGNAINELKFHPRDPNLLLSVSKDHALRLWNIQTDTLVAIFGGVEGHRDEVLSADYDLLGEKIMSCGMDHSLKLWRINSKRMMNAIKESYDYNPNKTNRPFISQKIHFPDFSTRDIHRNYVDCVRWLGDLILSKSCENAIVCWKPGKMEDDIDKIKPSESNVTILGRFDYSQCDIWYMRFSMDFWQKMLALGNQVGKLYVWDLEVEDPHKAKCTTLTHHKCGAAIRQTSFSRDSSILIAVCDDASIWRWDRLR
T1 sequence (Q15022 whole entry partner): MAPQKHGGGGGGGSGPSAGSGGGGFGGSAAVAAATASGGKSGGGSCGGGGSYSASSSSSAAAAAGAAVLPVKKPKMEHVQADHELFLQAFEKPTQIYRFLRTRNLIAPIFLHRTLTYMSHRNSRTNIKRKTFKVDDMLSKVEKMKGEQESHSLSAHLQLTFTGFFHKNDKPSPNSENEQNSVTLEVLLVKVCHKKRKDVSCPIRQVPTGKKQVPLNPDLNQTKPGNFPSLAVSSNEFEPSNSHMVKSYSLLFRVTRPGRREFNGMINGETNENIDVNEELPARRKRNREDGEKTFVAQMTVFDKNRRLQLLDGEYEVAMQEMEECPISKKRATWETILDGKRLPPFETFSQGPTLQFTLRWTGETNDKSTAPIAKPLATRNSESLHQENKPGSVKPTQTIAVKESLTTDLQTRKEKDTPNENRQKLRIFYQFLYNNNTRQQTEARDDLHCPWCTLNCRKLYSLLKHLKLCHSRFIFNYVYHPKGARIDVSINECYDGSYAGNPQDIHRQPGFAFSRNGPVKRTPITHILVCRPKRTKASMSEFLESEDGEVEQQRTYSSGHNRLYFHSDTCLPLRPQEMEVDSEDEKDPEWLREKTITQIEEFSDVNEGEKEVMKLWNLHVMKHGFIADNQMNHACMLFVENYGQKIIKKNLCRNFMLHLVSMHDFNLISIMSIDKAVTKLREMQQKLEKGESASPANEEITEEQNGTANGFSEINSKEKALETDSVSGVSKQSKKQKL
T1 sequence (Q09028 whole entry partner): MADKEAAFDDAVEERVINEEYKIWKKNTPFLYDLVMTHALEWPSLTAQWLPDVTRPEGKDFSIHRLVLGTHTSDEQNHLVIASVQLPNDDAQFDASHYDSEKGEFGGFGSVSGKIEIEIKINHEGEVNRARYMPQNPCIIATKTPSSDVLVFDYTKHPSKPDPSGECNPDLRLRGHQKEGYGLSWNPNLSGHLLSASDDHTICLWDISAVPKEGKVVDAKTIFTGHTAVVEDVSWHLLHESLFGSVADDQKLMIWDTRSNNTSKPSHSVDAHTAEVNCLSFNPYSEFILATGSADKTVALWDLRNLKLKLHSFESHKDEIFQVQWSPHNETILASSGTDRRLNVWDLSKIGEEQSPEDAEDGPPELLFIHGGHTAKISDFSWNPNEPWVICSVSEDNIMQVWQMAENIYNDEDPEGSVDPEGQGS

Row | Compound | IC50 [µM]
1 | CCN(c1cc(Cl)cc(C(=O)NCc2c(C)cc(C)n3ccnc23)c1C)[C@H]1CC[C@H](N(C)C)CC1 [Compound 1, 5-chloro-3-(((trans)-4-(dimethylamino)cyclohexyl)(ethyl)amino)-N-((5,7-dimethylimidazo[1,2-a]pyridin-8-yl)methyl)-2-methylbenzamide] | 0.433
2 | CCN(c1cc(Cl)cc(C(=O)NCc2c(C)ccn3ccnc23)c1C)[C@H]1CC[C@H](N(C)C)CC1 [Compound 2, 5-chloro-3-(((trans)-4-(dimethylamino)cyclohexyl)(ethyl)amino)-2-methyl-N-((7-methylimidazo[1,2-a]pyridin-8-yl)methyl)benzamide] | 1.38
3 | CCN(c1cc(Cl)cc(C(=O)NCc2cccn3ccnc23)c1C)[C@H]1CC[C@H](N(C)C)CC1 [Compound 3, 5-chloro-3-(((trans)-4-(dimethylamino)cyclohexyl)(ethyl)amino)-N-(imidazo[1,2-a]pyridin-8-ylmethyl)-2-methylbenzamide] | 2.18
4 | CCN(c1cc(Cl)cc(C(=O)NCc2ccc(C)c3cn(C)nc23)c1C)C1CCC(N(C)C)CC1 (centres unmarked) [Compound 4, 5-chloro-N-((2,4-dimethyl-2H-indazol-7-yl)methyl)-3-(((1s,4s)-4-(dimethylamino)cyclohexyl)(ethyl)amino)-2-methylbenzamide] | 5.13
5 | CCN(c1cc(Cl)cc(C(=O)NCc2c(C)ccc3cn(C)nc23)c1C)[C@H]1CC[C@H](N(C)C)CC1 [Compound 5, 5-chloro-N-((2,6-dimethyl-2H-indazol-7-yl)methyl)-3-(((trans)-4-(dimethylamino)cyclohexyl)(ethyl)amino)-2-methylbenzamide] | > 10
6 | CCN(c1cc(Cl)cc(C(=O)NCc2cccc3cn(C)nc23)c1C)[C@H]1CC[C@H](N(C)C)CC1 [Compound 6, 5-chloro-3-(((trans)-4-(dimethylamino)cyclohexyl)(ethyl)amino)-2-methyl-N-((2-methyl-2H-indazol-7-yl)methyl)benzamide] | > 10
7 | CCN(c1cc(Cl)cc(C(=O)NCc2cccc3ccnn23)c1C)[C@H]1CC[C@H](N(C)C)CC1 [Compound 7, 5-chloro-3-(((trans)-4-(dimethylamino)cyclohexyl)(ethyl)amino)-2-methyl-N-(pyrazolo[1,5-a]pyridin-7-ylmethyl)benzamide] | > 10
8 | CCN(c1cc(Cl)cc(C(=O)NCCc2nccn2C)c1C)[C@H]1CC[C@H](N(C)C)CC1 [Compound 8, 5-chloro-3-(((trans)-4-(dimethylamino)cyclohexyl)(ethyl)amino)-2-methyl-N-(2-(1-methyl-1H-imidazol-2-yl)ethyl)benzamide] | 12.2
9 | CCN(c1cc(Cl)cc(C(=O)NCCc2nccn2Cc2ccccc2)c1C)[C@H]1CC[C@H](N(C)C)CC1 [Compound 9, N-(2-(1-benzyl-1H-imidazol-2-yl)ethyl)-5-chloro-3-(((trans)-4-(dimethylamino)cyclohexyl)(ethyl)amino)-2-methylbenzamide] | 1.65
10 | CCN(c1cc(Cl)cc(C(=O)NCCc2ncc[nH]2)c1C)[C@H]1CC[C@H](N(C)C)CC1 [Compound 10, N-(2-(1H-imidazol-2-yl)ethyl)-5-chloro-3-(((trans)-4-(dimethylamino)cyclohexyl)(ethyl)amino)-2-methylbenzamide] | 2.03
11 | CCN(c1cc(Cl)cc(C(=O)NCCc2nc3ccccc3n2C)c1C)[C@H]1CC[C@H](N(C)C)CC1 [Compound 11, 5-chloro-3-(((trans)-4-(dimethylamino)cyclohexyl)(ethyl)amino)-2-methyl-N-(2-(1-methyl-1H-benzo[d]imidazol-2-yl)ethyl)benzamide] | > 50
12 | CCN(c1cc(Cl)cc(C(=O)NCCc2nccs2)c1C)[C@H]1CC[C@H](N(C)C)CC1 [Compound 12, 5-chloro-3-(((trans)-4-(dimethylamino)cyclohexyl)(ethyl)amino)-2-methyl-N-(2-(thiazol-2-yl)ethyl)benzamide] | > 50
13 | CCN(c1cc(Cl)cc(C(=O)NCCc2nc3ccccc3s2)c1C)[C@H]1CC[C@H](N(C)C)CC1 [Compound 13, N-(2-(benzo[d]thiazol-2-yl)ethyl)-5-chloro-3-(((trans)-4-(dimethylamino)cyclohexyl)(ethyl)amino)-2-methylbenzamide] | 37.7
14 | CCN(c1cc(Cl)cc(C(=O)NCCc2nc3ccccc3o2)c1C)[C@H]1CC[C@H](N(C)C)CC1 [Compound 14, N-(2-(benzo[d]oxazol-2-yl)ethyl)-5-chloro-3-(((trans)-4-(dimethylamino)cyclohexyl)(ethyl)amino)-2-methylbenzamide] | 6.55
15 | CCN(c1cc(Cl)cc(C(=O)NCc2ncc[nH]2)c1C)[C@H]1CC[C@H](N(C)C)CC1 [Compound 15, N-((1H-imidazol-2-yl)methyl)-5-chloro-3-(((trans)-4-(dimethylamino)cyclohexyl)(ethyl)amino)-2-methylbenzamide] | > 10
16 | CCN(c1cc(Cl)cc(C(=O)NCc2nccn2C)c1C)[C@H]1CC[C@H](N(C)C)CC1 [Compound 16, 5-chloro-3-(((tans)-4-(dimethylamino)cyclohexyl)(ethyl)amino)-2-methyl-N-((1-methyl-1H-imidazol-2-yl)methyl)benzamide] | 3.11
17 | CCN(c1cc(Cl)cc(C(=O)NCc2nccn2Cc2ccccc2)c1C)[C@H]1CC[C@H](N(C)C)CC1 [Compound 17, N-((1-benzyl-1H-imidazol-2-yl)methyl)-5-chloro-3-(((1r,4r)-4-(dimethylamino)cyclohexyl)(ethyl)amino)-2-methylbenzamide] | 2.99
18 | CCN(c1cc(Cl)cc(C(=O)NCc2nccn2C(C)C)c1C)[C@H]1CC[C@H](N(C)C)CC1 [Compound 18, 5-chloro-3-(((trans)-4-(dimethylamino)cyclohexyl)(ethyl)amino)-N-((1-isopropyl-1H-imidazol-2-yl)methyl)-2-methylbenzamide] | > 10
19 | CCN(c1cc(Cl)cc(C(=O)NCc2nc3ccccc3[nH]2)c1C)[C@H]1CC[C@H](N(C)C)CC1 [Compound 19, N-((1H-benzo[d]imidazol-2-yl)methyl)-5-chloro-3-(((1r,4r)-4-(dimethylamino)cyclohexyl)(ethyl)amino)-2-methylbenzamide] | > 10
20 | CCN(c1cc(Cl)cc(C(=O)NCc2ncc(C)[nH]2)c1C)[C@H]1CC[C@H](N(C)C)CC1 [Compound 20, 5-chloro-3-(((trans)-4-(dimethylamino)cyclohexyl)(ethyl)amino)-2-methyl-N-((5-methyl-1H-imidazol-2-yl)methyl)benzamide] | > 10
21 | CCN(c1cc(Cl)cc(C(=O)NCCc2nc3ccccc3[nH]2)c1C)[C@H]1CC[C@H](N(C)C)CC1 [Compound 21, N-(2-(1H-benzo[d]imidazol-2-yl)ethyl)-5-chloro-3-(((1r,4r)-4-(dimethylamino)cyclohexyl)(ethyl)amino)-2-methylbenzamide] | 37.1
22 | CCN(c1cc(Cl)cc(C(=O)NCc2cncn2C)c1C)C1CCOCC1 [Compound 22, 5-chloro-3-(ethyl(tetrahydro-2H-pyran-4-yl)amino)-2-methyl-N-((1-methyl-1H-imidazol-5-yl)methyl)benzamide] | > 50
23 | CCN(c1cc(Cl)cc(C(=O)NCc2nccn2C)c1C)C1CCOCC1 [Compound 23, 5-chloro-3-(ethyl(tetrahydro-2H-pyran-4-yl)amino)-2-methyl-N-((1-methyl-1H-imidazol-2-yl)methyl)benzamide] | 23.7
